# Laboratory results: PubChem BioAssay (NCI)
# Values joined by “and” are separate entries in the source; they are usually repeats but may differ in a detail not shown here. Identical values can stand only once.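 The concentration for 50% growth inhibition is given as GI50. Definition used: TGI = concentration required for complete inhibition of growth.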
# Columns and labels:
# Test in all cases: DTP human tumour cell line panel, 384-well format
# [1] = test system: COLO 205 colon
# [2] = test system: SK-OV-3 ovarian
# [3] = test system: MALME-3M melanoma
# [4] = test system: OVCAR-3 ovarian
# [5] = test system: HCC-2998 colon
# [6] = test system: SK-MEL-28 melanoma
# [7] = test system: DU-145 prostate
# [8] = test system: HS 578T breast
# [9] = test system: CCRF-CEM leukemia
# [10] = test system: UACC-62 melanoma
# [11] = test system: HL-60(TB) leukemia
# [12] = test system: HCT-15 colon
# [13] = test system: PC-3 prostate
# [14] = test system: SW-620 colon
# [15] = test system: A498 renal
# [16] = test system: MDA-MB-231 breast
# [17] = test system: MOLT-4 leukemia
# [18] = test system: TK-10 renal
# [19] = test system: SK-MEL-2 melanoma
# [20] = test system: 786-0 renal
# [21] = test system: NCI-H23 lung
# [22] = test system: SNB-19 CNS
# [23] = test system: HT29 colon
# [24] = test system: SR leukemia
# [25] = test system: K-562 leukemia
# [26] = test system: HOP-62 NSCLC
# [27] = test system: SF-268 CNS
# [28] = test system: SF-539 CNS
# [29] = test system: HOP-92 NSCLC
# [30] = test system: MDA-MB-468 breast
# [31] = test system: NCI-H460 NSCLC
# [32] = test system: M14 melanoma
# [33] = test system: U251 glioblastoma
# [34] = test system: CAKI-1 renal
# [35] = test system: NCI/ADR-RES ovarian
# [36] = test system: IGROV1 ovarian
# [37] = test system: MDA-MB-435 melanoma
# [38] = test system: HCT-116 colon
# [39] = test system: RPMI-8226 leukemia
# [40] = test system: EKVX NSCLC
# [41] = test system: OVCAR-5 ovarian
# [42] = test system: NCI-H522 lung
# [43] = test system: A549 NSCLC
# [44] = test system: SN12C renal
# [45] = test system: SK-MEL-5 melanoma
# [46] = test system: BT-549 breast
# [47] = test system: OVCAR-4 ovarian
# [48] = test system: KM12 colon
# [49] = test system: LOX IMVI melanoma
# [50] = test system: NCI-H322M lung
# [51] = test system: T-47D breast
# [52] = test system: NCI-H226 lung
# [53] = test system: UACC-257 melanoma
# [54] = test system: SNB-75 CNS
# [55] = test system: SF-295 CNS
# [56] = test system: ACHN renal
# [57] = test system: OVCAR-8 ovarian
# [58] = test system: RXF 393 renal
compound,measurement,setting,value
COc1cnccc1Nc1nc(-c2nn(Cc3c(F)cc(OCCO)cc3F)c3ccccc23)ncc1OC,GI50,[1],2270 nM
same,TGI,[1],> 33.3 µM
same,GI50,[2],1750 nM
same,TGI,[2],3.93 µM
same,GI50,[3],1770 nM
same,TGI,[3],3.2 µM
same,GI50,[4],1610 nM
same,TGI,[4],3.1 µM
same,GI50,[5],1760 nM
same,TGI,[5],4.47 µM
same,GI50,[6],1720 nM
same,TGI,[6],3.12 µM
same,GI50,[7],1730 nM
same,TGI,[7],3.44 µM
same,GI50,[8],1.75 µM
same,TGI,[8],3.89 µM
same,GI50,[9],395 nM
same,TGI,[9],1.74 µM
same,GI50,[10],1500 nM
same,TGI,[10],2.86 µM
same,GI50,[11],838 nM
same,TGI,[11],2160 nM
same,GI50,[12],1200 nM
same,TGI,[12],2510 nM
same,GI50,[13],1870 nM
same,TGI,[13],3.36 µM
same,GI50,[14],1470 nM
same,TGI,[14],2840 nM
same,GI50,[15],1190 nM
same,TGI,[15],2.43 µM
same,GI50,[16],1410 nM
same,TGI,[16],3.22 µM
same,GI50,[17],126 nM
same,TGI,[17],0.548 µM
same,GI50,[18],2040 nM
same,TGI,[18],4.14 µM
same,GI50,[19],1.54 µM
same,TGI,[19],2.88 µM
same,GI50,[20],1530 nM
same,TGI,[20],2.89 µM
same,GI50,[21],1630 nM
same,TGI,[21],3.15 µM
same,GI50,[22],1600 nM
same,TGI,[22],3.08 µM
same,GI50,[23],1850 nM
same,TGI,[23],5.48 µM
same,GI50,[24],261 nM
same,TGI,[24],1250 nM
same,GI50,[25],1210 nM
same,TGI,[25],2.56 µM
same,GI50,[26],783 nM
same,TGI,[26],2.06 µM
same,GI50,[27],845 nM
same,TGI,[27],2.72 µM
same,GI50,[28],1450 nM
same,TGI,[28],2.76 µM
same,GI50,[29],902 nM
same,TGI,[29],2.19 µM
same,GI50,[30],927 nM
same,TGI,[30],2.13 µM
same,GI50,[31],1060 nM
same,TGI,[31],2280 nM
same,GI50,[32],1400 nM
same,TGI,[32],2.86 µM
same,GI50,[33],1440 nM
same,TGI,[33],2.78 µM
same,GI50,[34],1900 nM
same,TGI,[34],8.3 µM
same,GI50,[35],1870 nM
same,TGI,[35],3.9 µM
same,GI50,[36],1940 nM
same,TGI,[36],4.47 µM
same,GI50,[37],1730 nM
same,TGI,[37],3.36 µM
same,GI50,[38],1620 nM
same,TGI,[38],3.6 µM
same,GI50,[39],841 nM
same,TGI,[39],2090 nM
same,GI50,[40],1540 nM
same,TGI,[40],3.16 µM
same,GI50,[41],2860 nM
same,TGI,[41],7.17 µM
same,GI50,[42],768 nM
same,TGI,[42],2.03 µM
same,GI50,[43],1540 nM
same,TGI,[43],2.92 µM
same,GI50,[44],1310 nM
same,TGI,[44],2.65 µM
same,GI50,[45],1510 nM
same,TGI,[45],2850 nM
same,GI50,[46],1440 nM
same,TGI,[46],2.8 µM
same,GI50,[47],1.64 µM
same,TGI,[47],3.03 µM
same,GI50,[48],1270 nM
same,TGI,[48],3.13 µM
same,GI50,[49],1.25 µM
same,TGI,[49],2720 nM
CC(=O)c1c(C)c2cnc(Nc3ccc(N4CCNCC4)cn3)nc2n(C2CCCC2)c1=O,TGI,[1],11 µM and > 100 µM
same,TGI,[2],14.8 µM and > 100 µM
same,TGI,[3],11.2 µM and > 100 µM
same,TGI,[4],16.4 µM and > 100 µM
same,TGI,[5],10.9 µM and > 100 µM
same,TGI,[6],13 µM and > 100 µM
same,TGI,[7],14.6 µM and > 100 µM
same,GI50,[8],10.1 µM and > 100 µM
same,TGI,[8],17.2 µM and > 100 µM
same,TGI,[50],14.5 µM and > 100 µM
same,GI50,[9],191 nM
same,TGI,[9],5.34 µM
same,TGI,[10],11.4 µM and > 100 µM
same,TGI,[51],14.8 µM and > 100 µM
same,GI50,[11],81.1 nM and 37.9 nM
same,TGI,[52],13.1 µM and > 100 µM
same,TGI,[13],15.4 µM and > 100 µM
same,TGI,[15],13.1 µM and > 100 µM
same,TGI,[16],14.4 µM and > 100 µM
same,GI50,[17],121 nM and 123 nM
same,TGI,[17],5.1 µM and 4.65 µM
same,GI50,[19],9.24 µM
same,TGI,[19],16.2 µM
same,TGI,[20],10.3 µM and > 100 µM
same,TGI,[53],13.3 µM and > 100 µM
same,TGI,[21],15.1 µM and > 100 µM
same,TGI,[22],13.9 µM and > 100 µM
same,TGI,[23],12.1 µM and > 100 µM
same,GI50,[24],428 nM and 198 nM
same,TGI,[24],3830 nM and 634 nM
same,GI50,[25],2640 nM
same,TGI,[25],9.38 µM
same,TGI,[26],13.7 µM and > 100 µM
same,TGI,[27],13 µM and > 100 µM
same,TGI,[28],16.7 µM and > 100 µM
same,TGI,[29],15 µM and > 100 µM
same,TGI,[54],14.2 µM and > 100 µM
same,TGI,[30],10.1 µM and > 100 µM
same,TGI,[32],11 µM and > 100 µM
same,TGI,[33],12.2 µM and > 100 µM
same,GI50,[34],686 nM and 698 nM
same,TGI,[35],17.1 µM and > 100 µM
same,TGI,[55],13.7 µM and > 100 µM
same,TGI,[37],11.6 µM and > 100 µM
same,GI50,[39],422 nM
same,TGI,[39],> 100000 nM
same,TGI,[40],15.4 µM and > 100 µM
same,TGI,[41],12 µM and > 100 µM
same,GI50,[56],976 nM and 3180 nM
same,TGI,[42],15 µM and > 100 µM
same,TGI,[57],16.4 µM and > 100 µM
same,TGI,[43],10.8 µM and > 100 µM
same,TGI,[44],13.3 µM and > 100 µM
same,TGI,[46],14.3 µM and > 100 µM
same,GI50,[47],11.2 µM and > 100 µM
same,TGI,[47],18.6 µM and > 100 µM
same,GI50,[58],11.4 µM and > 100 µM
same,TGI,[58],18.7 µM and > 100 µM
same,GI50,[48],713 nM and 388 nM
same,GI50,[49],25.4 µM
same,TGI,[49],> 100000 nM
